Results: ChEMBL document CHEMBL1909046, “DrugMatrix in vitro pharmacology data”

Legend:
[1] = target: T1, Alpha-1A adrenergic receptor (Rattus norvegicus, UniProt P43140); assay: DRUGMATRIX: Alpha-1A adrenergic receptor radioligand binding (ligand: prazosin); format: cell membranes, Wistar, Submaxillary gland, Membrane; settings: Not Active = under 50% inhibition at 10 µM
T1 sequence (P43140 whole entry): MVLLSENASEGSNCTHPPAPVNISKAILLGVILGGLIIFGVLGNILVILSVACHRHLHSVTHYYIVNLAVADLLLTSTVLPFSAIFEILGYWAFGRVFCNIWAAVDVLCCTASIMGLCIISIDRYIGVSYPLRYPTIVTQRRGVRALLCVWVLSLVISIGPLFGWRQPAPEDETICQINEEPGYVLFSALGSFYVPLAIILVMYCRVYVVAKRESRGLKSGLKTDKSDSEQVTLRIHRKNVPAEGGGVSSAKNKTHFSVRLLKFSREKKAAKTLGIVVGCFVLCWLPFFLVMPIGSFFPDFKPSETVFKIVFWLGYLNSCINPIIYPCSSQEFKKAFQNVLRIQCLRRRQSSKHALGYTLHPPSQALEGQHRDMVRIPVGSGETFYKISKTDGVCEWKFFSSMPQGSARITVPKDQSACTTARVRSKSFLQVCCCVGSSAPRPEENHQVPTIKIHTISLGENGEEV

[2] = target: T2, Alpha-1D adrenergic receptor (Homo sapiens, UniProt P25100); format: cell membranes, HEK293, Membrane; also: in other assays of this panel Not Active means under 50% inhibition at 10 µM
T2 sequence (P25100 whole entry): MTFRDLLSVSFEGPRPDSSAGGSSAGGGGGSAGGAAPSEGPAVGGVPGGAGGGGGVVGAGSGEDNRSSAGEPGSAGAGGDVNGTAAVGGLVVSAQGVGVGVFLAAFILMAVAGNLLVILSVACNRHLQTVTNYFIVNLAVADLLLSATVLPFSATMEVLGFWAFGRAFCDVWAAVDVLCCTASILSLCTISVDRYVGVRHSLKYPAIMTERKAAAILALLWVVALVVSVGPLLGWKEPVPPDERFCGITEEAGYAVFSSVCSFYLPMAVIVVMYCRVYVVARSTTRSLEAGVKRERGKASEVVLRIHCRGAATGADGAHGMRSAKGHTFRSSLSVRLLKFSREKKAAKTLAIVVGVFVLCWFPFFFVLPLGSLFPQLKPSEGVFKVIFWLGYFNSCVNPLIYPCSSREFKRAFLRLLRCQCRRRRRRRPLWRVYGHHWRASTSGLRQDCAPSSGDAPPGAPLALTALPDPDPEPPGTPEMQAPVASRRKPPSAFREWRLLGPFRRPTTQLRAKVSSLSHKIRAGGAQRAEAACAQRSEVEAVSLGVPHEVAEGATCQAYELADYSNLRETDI

[3] = target: 5-hydroxytryptamine receptor 2B (Homo sapiens, UniProt P41595); format: cell membranes, CHO-K1, Membrane; also: in other assays of this panel Not Active means under 50% inhibition at 10 µM
Chain of 5-hydroxytryptamine receptor 2B (P41595 whole entry): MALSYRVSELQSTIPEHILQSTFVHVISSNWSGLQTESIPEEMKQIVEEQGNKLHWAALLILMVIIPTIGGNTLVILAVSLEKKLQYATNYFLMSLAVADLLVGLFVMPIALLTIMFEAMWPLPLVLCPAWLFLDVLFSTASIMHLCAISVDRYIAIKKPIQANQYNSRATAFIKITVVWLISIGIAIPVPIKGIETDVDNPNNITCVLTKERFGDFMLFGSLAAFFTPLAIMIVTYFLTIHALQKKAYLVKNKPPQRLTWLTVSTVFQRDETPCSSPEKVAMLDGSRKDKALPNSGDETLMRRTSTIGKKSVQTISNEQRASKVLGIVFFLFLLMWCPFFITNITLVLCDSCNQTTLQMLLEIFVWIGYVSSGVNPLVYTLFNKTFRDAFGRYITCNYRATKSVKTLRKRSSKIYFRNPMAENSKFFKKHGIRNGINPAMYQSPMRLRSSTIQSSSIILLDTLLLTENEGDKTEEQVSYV

[4] = DRUGMATRIX: Serotonin (5-Hydroxytryptamine) 5-HT3 radioligand binding (ligand: [3H] GR-65630); format: cell membranes, Membrane; settings: hek293, Not Active = under 50% inhibition at 10 µM
Thromboxane-A synthase = target: T3, Thromboxane-A synthase (Homo sapiens, UniProt P24557); assay: biochemical; format: tissue-based, Platelet;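 also: enzyme inhibition assay with PGH2 supplied as substrate; in other assays of this panel Not Active means under 50% inhibition at 10 µM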
T3 sequence (P24557 whole entry): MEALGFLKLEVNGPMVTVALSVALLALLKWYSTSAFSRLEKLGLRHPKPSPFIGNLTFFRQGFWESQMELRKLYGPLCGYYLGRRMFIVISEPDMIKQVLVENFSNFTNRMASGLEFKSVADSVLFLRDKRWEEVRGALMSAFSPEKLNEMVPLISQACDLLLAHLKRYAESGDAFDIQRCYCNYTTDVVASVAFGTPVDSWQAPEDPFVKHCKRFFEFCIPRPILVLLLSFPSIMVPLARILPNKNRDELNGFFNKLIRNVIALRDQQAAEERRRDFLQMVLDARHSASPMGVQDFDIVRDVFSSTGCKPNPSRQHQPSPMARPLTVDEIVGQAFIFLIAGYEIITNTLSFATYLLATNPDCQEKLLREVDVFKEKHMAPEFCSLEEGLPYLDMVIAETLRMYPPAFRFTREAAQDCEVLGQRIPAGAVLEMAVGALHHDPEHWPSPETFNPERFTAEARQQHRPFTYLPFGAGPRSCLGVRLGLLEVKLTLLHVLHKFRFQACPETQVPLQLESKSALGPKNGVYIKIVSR

[5] = target: C-C chemokine receptor type 2 (Homo sapiens, UniProt P41597); format: cell membranes, CHO-K1, Membrane; settings: cho-k1; also: in other assays of this panel Not Active means under 50% inhibition at 10 µM
Chain of C-C chemokine receptor type 2 (P41597 whole entry): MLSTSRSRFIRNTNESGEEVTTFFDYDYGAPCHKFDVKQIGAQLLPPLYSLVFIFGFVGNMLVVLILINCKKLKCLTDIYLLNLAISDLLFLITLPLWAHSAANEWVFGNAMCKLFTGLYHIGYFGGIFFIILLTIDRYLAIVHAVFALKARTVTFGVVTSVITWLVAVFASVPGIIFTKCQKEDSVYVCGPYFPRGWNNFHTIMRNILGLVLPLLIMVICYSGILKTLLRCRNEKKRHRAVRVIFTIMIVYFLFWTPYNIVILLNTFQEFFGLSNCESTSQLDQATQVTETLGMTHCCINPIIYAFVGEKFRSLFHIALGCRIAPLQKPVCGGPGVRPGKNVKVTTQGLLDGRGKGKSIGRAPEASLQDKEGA

[6] = target: Prostaglandin G/H synthase 1 (Homo sapiens, UniProt P23219); assay: biochemical; format: tissue-based, Platelet; settings: platelet
Chain of Prostaglandin G/H synthase 1 (P23219 whole entry): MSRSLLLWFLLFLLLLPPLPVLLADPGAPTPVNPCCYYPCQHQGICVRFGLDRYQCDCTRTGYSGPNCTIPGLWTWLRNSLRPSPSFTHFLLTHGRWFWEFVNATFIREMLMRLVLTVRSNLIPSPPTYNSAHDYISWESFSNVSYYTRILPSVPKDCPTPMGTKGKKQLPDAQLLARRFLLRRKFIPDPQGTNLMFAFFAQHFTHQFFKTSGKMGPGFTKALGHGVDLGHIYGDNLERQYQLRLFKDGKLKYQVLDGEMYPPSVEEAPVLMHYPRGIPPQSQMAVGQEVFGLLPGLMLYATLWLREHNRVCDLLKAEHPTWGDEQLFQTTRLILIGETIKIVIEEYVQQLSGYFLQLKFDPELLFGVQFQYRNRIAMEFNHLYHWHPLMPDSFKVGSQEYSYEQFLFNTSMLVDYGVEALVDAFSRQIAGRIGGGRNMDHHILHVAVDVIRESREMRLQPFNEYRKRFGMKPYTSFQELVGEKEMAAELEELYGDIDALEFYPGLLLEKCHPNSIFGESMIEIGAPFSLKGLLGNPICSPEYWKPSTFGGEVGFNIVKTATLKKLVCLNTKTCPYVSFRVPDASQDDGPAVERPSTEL

D(3) dopamine receptor = D(3) dopamine receptor (Homo sapiens, UniProt P35462); assay: DRUGMATRIX: Dopamine D3 radioligand binding (ligand: [3H] Spiperone); format: cell membranes, CHO, Membrane
Chain of D(3) dopamine receptor (P35462 whole entry): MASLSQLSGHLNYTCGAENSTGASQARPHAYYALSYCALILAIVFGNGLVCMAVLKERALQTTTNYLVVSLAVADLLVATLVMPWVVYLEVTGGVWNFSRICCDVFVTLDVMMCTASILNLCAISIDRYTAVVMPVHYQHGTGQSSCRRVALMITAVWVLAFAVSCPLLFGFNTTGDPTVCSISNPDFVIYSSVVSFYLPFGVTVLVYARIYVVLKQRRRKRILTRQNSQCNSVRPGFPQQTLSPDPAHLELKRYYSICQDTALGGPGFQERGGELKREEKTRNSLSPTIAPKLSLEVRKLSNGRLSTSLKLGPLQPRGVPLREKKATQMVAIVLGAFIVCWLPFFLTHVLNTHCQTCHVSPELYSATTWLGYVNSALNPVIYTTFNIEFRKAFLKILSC

Melanocortin receptor 3 = Melanocortin receptor 3 (Homo sapiens, UniProt P41968); format: cell membranes, Membrane; settings: hek293; also: in other assays of this panel Not Active means under 50% inhibition at 10 µM
Chain of Melanocortin receptor 3 (P41968 whole entry): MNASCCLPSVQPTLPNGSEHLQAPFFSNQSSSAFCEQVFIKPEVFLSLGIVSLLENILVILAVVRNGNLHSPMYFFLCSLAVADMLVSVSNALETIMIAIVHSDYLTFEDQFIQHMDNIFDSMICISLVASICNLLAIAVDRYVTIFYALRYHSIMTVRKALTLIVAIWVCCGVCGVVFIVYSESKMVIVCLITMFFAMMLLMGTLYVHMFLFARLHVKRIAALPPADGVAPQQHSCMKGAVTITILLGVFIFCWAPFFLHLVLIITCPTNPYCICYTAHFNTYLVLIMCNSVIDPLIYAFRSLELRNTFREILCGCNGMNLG

[7] = target: T4, 5-hydroxytryptamine receptor 1A (Rattus norvegicus, UniProt P19327); format: cell membranes, CHO-K1, Membrane; settings: for Ki: read-out: Ki
T4 sequence (P19327 whole entry): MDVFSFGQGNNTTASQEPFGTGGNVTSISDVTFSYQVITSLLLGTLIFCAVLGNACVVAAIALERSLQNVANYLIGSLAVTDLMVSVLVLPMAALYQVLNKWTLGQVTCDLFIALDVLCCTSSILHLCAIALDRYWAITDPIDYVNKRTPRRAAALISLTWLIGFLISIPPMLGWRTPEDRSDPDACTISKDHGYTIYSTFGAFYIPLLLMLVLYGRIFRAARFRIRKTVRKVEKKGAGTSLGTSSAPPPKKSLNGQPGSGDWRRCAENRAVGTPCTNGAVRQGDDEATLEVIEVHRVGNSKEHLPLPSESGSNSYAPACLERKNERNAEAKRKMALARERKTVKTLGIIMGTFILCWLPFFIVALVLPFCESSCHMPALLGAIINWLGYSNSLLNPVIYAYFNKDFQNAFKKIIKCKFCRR

[8] = target: Beta-1 adrenergic receptor (Homo sapiens, UniProt P08588); assay: DRUGMATRIX: Adrenergic beta1 radioligand binding (ligand: [125I] Cyanopindolol); format: cell membranes, CHO-K1, Membrane; settings: cho-k1; Not Active = under 50% inhibition at 10 µM
Chain of Beta-1 adrenergic receptor (P08588 whole entry): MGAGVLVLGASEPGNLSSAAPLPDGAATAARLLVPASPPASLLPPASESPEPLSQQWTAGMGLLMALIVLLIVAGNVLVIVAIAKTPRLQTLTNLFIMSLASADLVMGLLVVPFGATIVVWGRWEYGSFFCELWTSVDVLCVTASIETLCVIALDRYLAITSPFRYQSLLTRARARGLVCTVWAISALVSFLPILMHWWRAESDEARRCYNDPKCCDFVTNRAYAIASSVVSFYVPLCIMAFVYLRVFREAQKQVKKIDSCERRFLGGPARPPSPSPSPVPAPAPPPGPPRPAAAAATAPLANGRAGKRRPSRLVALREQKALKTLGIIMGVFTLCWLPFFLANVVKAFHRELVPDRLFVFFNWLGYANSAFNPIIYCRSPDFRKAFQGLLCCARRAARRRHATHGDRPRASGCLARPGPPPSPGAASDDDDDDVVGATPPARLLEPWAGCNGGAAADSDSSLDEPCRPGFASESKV

[9] = target: Beta-3 adrenergic receptor (Homo sapiens, UniProt P13945); assay: DRUGMATRIX: Adrenergic beta3 radioligand binding (ligand: [125I] Cyanopindolol); format: cell membranes, HEK293, Membrane; settings: hek293; Not Active = under 50% inhibition at 10 µM
Chain of Beta-3 adrenergic receptor (P13945 whole entry): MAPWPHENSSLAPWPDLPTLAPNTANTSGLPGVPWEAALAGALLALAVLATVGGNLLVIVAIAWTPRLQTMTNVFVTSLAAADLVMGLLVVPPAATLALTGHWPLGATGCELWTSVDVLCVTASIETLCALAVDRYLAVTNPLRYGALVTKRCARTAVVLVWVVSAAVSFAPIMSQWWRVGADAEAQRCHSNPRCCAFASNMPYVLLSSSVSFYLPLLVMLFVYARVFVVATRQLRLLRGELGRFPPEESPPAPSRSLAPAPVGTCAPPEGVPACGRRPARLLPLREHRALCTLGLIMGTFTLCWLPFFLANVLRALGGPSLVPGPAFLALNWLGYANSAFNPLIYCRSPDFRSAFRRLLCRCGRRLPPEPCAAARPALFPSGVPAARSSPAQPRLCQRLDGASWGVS

Cytochrome P450 2E1 = Cytochrome P450 2E1 (Homo sapiens, UniProt P05181); settings: bti-tn-5b1-4; also: in other assays of this panel Not Active means under 50% inhibition at 10 µM
Chain of Cytochrome P450 2E1 (P05181 whole entry): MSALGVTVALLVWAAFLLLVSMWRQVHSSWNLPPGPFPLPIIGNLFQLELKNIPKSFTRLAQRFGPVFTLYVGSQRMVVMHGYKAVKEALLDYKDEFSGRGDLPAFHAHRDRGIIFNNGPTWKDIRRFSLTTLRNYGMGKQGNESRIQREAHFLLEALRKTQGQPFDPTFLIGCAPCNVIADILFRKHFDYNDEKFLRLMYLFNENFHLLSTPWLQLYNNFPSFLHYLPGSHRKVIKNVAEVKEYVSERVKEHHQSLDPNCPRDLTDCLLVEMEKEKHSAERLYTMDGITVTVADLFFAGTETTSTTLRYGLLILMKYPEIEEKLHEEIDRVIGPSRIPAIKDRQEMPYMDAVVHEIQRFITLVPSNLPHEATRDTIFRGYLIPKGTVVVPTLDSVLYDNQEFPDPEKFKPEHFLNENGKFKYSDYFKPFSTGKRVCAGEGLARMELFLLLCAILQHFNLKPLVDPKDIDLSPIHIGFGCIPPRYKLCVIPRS

| Structure (SMILES) | IC50 [1] | IC50 ([2]; hek293) | IC50 ([3]; cho-k1) | IC50 [4] | Ki [4] | IC50 (Thromboxane-A synthase; platelet) | IC50 [5] | IC50 [6] | IC50 (D(3) dopamine receptor; cho) | IC50 (Melanocortin receptor 3) | IC50 [8] | IC50 [9] | IC50 ([7]; cho-k1) | IC50 (Cytochrome P450 2E1) | Ki (Cytochrome P450 2E1) | other results |
| --- | --- | --- | --- | --- | --- | --- | --- | --- | --- | --- | --- | --- | --- | --- | --- | --- |
| CC(C)NC[C@H](O)COc1cccc2[nH]ccc12 | Not Active | Not Active | Not Active | Not Active | Not Active | Not Active | Not Active | Not Active | Not Active | Not Active | – | – | – | – | – | IC50 ([7]; read-out: IC50): 28 nM; Ki [7]: 16 nM |
| Cc1[nH]cnc1CN1CCc2c(c3ccccc3n2C)C1=O [ALOSETRON] | Not Active | Not Active | – | – | – | Not Active | Not Active | Not Active | Not Active | Not Active | Not Active | Not Active | Not Active | Not Active | Not Active | IC50 ([4]; read-out: IC50): 1.16 nM; Ki ([4]; read-out: Ki): 0.262 nM |
| N=C(N)NCCCCNC(=N)N.O=S(=O)(O)O [ARCAINE SULFATE] | Not Active | Not Active | Not Active | Not Active | Not Active | Not Active | Not Active | Not Active | Not Active | Not Active | – | Not Active | Not Active | Not Active | Not Active | – |
| Oc1c(Cl)cc(Cl)cc1Sc1cc(Cl)cc(Cl)c1O [BITHIONOL] | Not Active | Not Active | – | Not Active | Not Active | – | Not Active | Not Active | – | Not Active | Not Active | Not Active | – | Not Active | Not Active | IC50 (Thromboxane-A synthase; read-out: IC50): 1840 nM; IC50 (D(3) dopamine receptor; read-out: IC50): 4220 nM; Ki (D(3) dopamine receptor; read-out: Ki): 1430 nM; IC50 ([7]; read-out: IC50): 5510 nM; Ki [7]: 3150 nM |
| COC(=O)[C@H](c1ccccc1Cl)N1CCc2sccc2C1 [CLOPIDOGREL] | Not Active | Not Active | Not Active | Not Active | Not Active | Not Active | Not Active | Not Active | Not Active | Not Active | – | Not Active | Not Active | Not Active | Not Active | – |
| Cc1ccccc1N1CCN(CCc2nnc3n2CCCC3)CC1 [DAPIPRAZOLE] | – | – | – | Not Active | Not Active | Not Active | Not Active | Not Active | Not Active | Not Active | Not Active | Not Active | – | Not Active | Not Active | IC50 ([2]; read-out: IC50): 8.31 nM; Ki ([2]; read-out: Ki): 4.09 nM; IC50 ([3]; read-out: IC50): 1060 nM; Ki ([3]; read-out: Ki): 672 nM; IC50 ([7]; read-out: IC50): 2060 nM; Ki [7]: 1180 nM |
| CCc1cccc2c3c([nH]c12)C(CC)(CC(=O)O)OCC3 (centres undefined) [ETODOLAC] | Not Active | Not Active | Not Active | Not Active | Not Active | Not Active | Not Active | – | Not Active | Not Active | Not Active | Not Active | Not Active | Not Active | Not Active | – |
| O=C1OCCN1/N=C/c1ccc([N+](=O)[O-])o1 [FURAZOLIDONE] | Not Active | Not Active | Not Active | Not Active | Not Active | Not Active | Not Active | Not Active | Not Active | Not Active | Not Active | Not Active | Not Active | – | – | – |
| NCC(=O)O [GLYCINE] | Not Active | Not Active | Not Active | Not Active | Not Active | Not Active | Not Active | Not Active | Not Active | Not Active | Not Active | Not Active | Not Active | – | – | – |
| O=P1(NCCCl)OCCCN1CCCl (centres undefined) [IFOSFAMIDE] | Not Active | Not Active | Not Active | Not Active | Not Active | Not Active | Not Active | Not Active | Not Active | Not Active | Not Active | Not Active | Not Active | – | – | – |
| CN1C(C(=O)Nc2ccccn2)=C(O)c2ccccc2S1(=O)=O [PIROXICAM] | Not Active | Not Active | Not Active | Not Active | Not Active | Not Active | Not Active | – | Not Active | Not Active | Not Active | Not Active | Not Active | Not Active | Not Active | – |
